Laboratory results: patent US9260429B2, “Pyrido[3,4-B]indoles and methods of use” (Medivation Technologies, Inc., priority 2008, dated 2016)
Like-named read-outs stand apart in the source and are kept apart here.

Tests used:
[1] = target: T1, human recombinant serotonin (5-Hydroxytryptamine) 5-HT2C receptor (Homo sapiens, UniProt P28335); assay: Serotonin 5-HT2C radioligand binding ([3H]Mesulergine)
T1 construct: expressed in transfected cells; host or cells: CHO-K1 cells
T1 sequence (P28335 33-458): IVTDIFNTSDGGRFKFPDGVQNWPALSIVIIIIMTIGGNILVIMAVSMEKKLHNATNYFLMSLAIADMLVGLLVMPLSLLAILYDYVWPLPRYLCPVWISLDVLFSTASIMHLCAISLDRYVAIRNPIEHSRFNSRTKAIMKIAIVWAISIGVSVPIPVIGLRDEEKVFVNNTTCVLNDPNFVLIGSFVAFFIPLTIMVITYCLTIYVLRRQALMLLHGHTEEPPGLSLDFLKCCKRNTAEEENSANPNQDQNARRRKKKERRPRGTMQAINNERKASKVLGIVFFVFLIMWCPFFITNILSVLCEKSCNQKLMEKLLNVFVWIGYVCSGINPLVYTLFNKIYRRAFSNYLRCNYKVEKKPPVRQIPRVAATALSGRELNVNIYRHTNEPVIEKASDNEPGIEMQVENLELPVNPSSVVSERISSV
Procedure: Compounds of the invention were incubated with 1 nM [^3H]Mesulergine for 60 minutes at 25° C. Non-specific binding was estimated in the presence of 1 μM Mianserin. Receptor proteins were filtered and washed, the filters were then counted to determine [^3H]Mesulergine specifically bound. […] Biochemical assay results are presented as the percent inhibition of specific binding in Table 5.

[2] = target: T2, human recombinant dopamine D2L receptor (Homo sapiens, UniProt P14416); assay: Dopamine D2L radioligand binding ([3H]Spiperone)
T2 construct: expressed in transfected cells; host or cells: CHO cells
Procedure, shortened: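 CHO-expressed receptor in 50 mM Tris-HCl pH 7.4 with ascorbic acid, 0.001% BSA, 150 mM NaCl; 0.16 nM [3H]spiperone, 120 min at 25 °C; nonspecific binding with haloperidol.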

[3] = target: T3, human recombinant adrenergic α1D receptor (Homo sapiens, UniProt P25100); assay: Adrenergic α1D radioligand binding ([3H]Prozosin)
T3 construct: expressed in transfected cells; host or cells: HEK-293 cells
T3 sequence (P25100 1-572): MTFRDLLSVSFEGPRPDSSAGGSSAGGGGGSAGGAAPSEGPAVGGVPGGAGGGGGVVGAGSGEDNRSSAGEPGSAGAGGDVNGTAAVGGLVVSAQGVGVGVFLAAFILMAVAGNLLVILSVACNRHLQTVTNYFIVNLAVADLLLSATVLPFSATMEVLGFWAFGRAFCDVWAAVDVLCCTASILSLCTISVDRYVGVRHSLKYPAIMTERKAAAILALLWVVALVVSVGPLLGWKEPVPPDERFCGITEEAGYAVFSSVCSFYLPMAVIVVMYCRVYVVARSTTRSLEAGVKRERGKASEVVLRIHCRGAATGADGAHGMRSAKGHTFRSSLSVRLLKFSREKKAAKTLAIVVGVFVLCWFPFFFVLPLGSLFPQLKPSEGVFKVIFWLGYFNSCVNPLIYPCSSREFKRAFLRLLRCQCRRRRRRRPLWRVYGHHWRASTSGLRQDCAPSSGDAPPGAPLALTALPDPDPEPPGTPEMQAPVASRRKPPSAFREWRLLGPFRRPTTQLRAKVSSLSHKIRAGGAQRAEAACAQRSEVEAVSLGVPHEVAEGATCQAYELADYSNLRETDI
Procedure: To evaluate in radioligand binding assays the activity of compounds of the invention, human recombinant adrenergic a1D receptor expressed in human embryonic kidney (HEK-293) cells (Kenny, B. A. et al. Br. J. Pharmacol. 115(6):981, 1995) in a 50 mM Tris-HCl buffer, pH 7.4, was used. Compounds of invention were incubated with 0.6 nM [^3H]Prozosin for 60 minutes at 25° C. Non-specific binding was estimated in the presence of 10 μM phentolamine. Receptor proteins were filtered and washed, the filters were then counted to determine [^3H]Prozosin specifically bound. Compounds were screened at 1 μM or lower, using 1% DMSO as vehicle. Biochemical assay results are presented as the percent inhibition of specific binding in Table 4. Adrenergic a2A

[4] = 1 h, read-out: Percent Inhibition of ligand binding Serotonin (1 μM ligand concentration) 5-HT2C
[5] = 2 h, 1 μM ligand conc., read-out: Percent Inhibition of ligand binding Dopamine (1 μM ligand conc.) D2L
[6] = 1 h, read-out: Percent Inhibition of ligand binding Adrenergic (1 μM ligand conc.) α1D

T2 sequence (P14416 whole entry): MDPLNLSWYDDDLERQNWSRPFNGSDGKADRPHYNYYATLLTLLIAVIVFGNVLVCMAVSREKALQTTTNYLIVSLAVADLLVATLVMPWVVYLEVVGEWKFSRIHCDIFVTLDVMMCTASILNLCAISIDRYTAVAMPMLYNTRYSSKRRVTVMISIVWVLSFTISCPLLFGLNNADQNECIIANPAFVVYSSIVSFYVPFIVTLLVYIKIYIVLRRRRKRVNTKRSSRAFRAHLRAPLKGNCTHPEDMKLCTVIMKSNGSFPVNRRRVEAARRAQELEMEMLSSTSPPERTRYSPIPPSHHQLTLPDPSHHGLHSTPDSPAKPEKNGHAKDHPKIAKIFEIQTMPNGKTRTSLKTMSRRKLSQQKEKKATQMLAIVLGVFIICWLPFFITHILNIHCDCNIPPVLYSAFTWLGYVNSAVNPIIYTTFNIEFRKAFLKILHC

Structure (SMILES)	inhibition at 1 µM [1, 4] [%]	inhibition at 1 µM [2, 5] [%]	inhibition at 1 µM [3, 6] [%]	inhibition at 1 µM ([1]; compound concentration 1 μM, read-out: Percentage inhibition of ligand binding to 5-HT2C receptor) [%]	inhibition at 1 µM ([2]; compound concentration 1 μM, read-out: Percentage inhibition of ligand binding to D2L receptor) [%]	inhibition at 3 µM ([2]; compound concentration 3 μM, read-out: Percentage inhibition of ligand binding to D2L receptor) [%]	inhibition at 1 µM ([3]; compound concentration 1 μM, read-out: Percentage inhibition of ligand binding to Adrenergic α1D receptor) [%]	Percent Inhibition of ligand binding Serotonin (1 μM ligand concentration) 5-HT2C [1] [%]
Cc1ccc2c(c1)c1c(n2CCc2ccc(C(F)(F)F)nc2)CN(C)CC1 [Compound 5, 9-(2-(6-(trifluoromethyl)pyridin-3-yl)ethyl)-2,3,4,9-tetrahydro-2,6-dimethyl-1H-pyrido[3,4-b]indole]	39	0	64					
CN1CCc2c(n(CCCc3ccccc3)c3ccc(Cl)cc23)C1 [Compound 29, 6-chloro-2,3,4,9-tetrahydro-2-methyl-9-(3-phenylpropyl)-1H-pyrido[3,4-b]indole]	90	24	84					
Cc1ccc2c(c1)c1c(n2/C=C/c2ccccc2)CN(C)CC1 [Compound 92]	96	47	97	96	47	72	97	
C/C(=C\n1c2c(c3cc(Cl)ccc31)CCN(C)C2C)c1ccccc1F (stereo not shown) [Compound 168]	96	9	38					
CN1CCc2c(n(CC(=O)N3CCNCC3)c3ccc(Cl)cc23)C1 [Compound 55, 2-(6-chloro-2-methyl-3,4-dihydro-1H-pyrido[3,4-b]indol-9(2H)-yl)-1-(piperazin-1-yl)ethanone]	13	-6	10					
Cc1ccc2c(c1)c1c(n2CCc2ccc(C)nc2)CN(C)CC1 [Compound 1, 2,3,4,9-tetrahydro-2,6-dimethyl-9-(2-(6-methylpyridin-3-yl)ethyl)-1H-pyrido[3,4-b]indole]	25	6	65					
C/C(=C\n1c2c(c3cc(C)ccc31)CCN(C)C2)c1ccc(Cl)cc1 [Compound 97, 9-(2-(4-chlorophenyl)prop-1-enyl)-2,6-dimethyl-2,3,4,9-tetrahydro-1H-pyrido[3,4-b]indole]	99	15	66					
Cc1ccc2c(c1)c1c(n2CC(=O)N2CCCCC2)CN(C)CC1 [Compound 57, 2-(2,6-dimethyl-3,4-dihydro-1H-pyrido[3,4-b]indol-9(2H)-yl)-1-(piperidin-1-yl)ethanone]	14	6	77					
COC(=O)Cn1c2c(c3cc(C)ccc31)CCN(C)C2 [Compound 21, methyl 2-(1,2,3,4-tetrahydro-2,6-dimethylpyrido[3,4-b]indol-9-yl)acetate]		-1	-7					16
Cc1ccc2c(c1)c1c(n2CCC(=O)N2CCCCC2)CN(C)CC1 [Compound 43, 3-(1,2,3,4-tetrahydro-2,6-dimethylpyrido[3,4-b]indol-9-yl)-1-(piperidin-1-yl)propan-1-one]	31	-8	58					
C#CCn1c2c(c3cc(Cl)ccc31)CCN(C)C2 [Compound 125, 6-chloro-2,3,4,9-tetrahydro-2-methyl-9-(prop-2-yn1)-1H-pyrido[3,4-b]indole]		19	93					74
CN1CCc2c(n(CCC3CCCC3)c3ccc(Cl)cc23)C1 [Compound 35, 6-chloro-9-(2-cyclopentylethyl)-2,3,4,9-tetrahydro-2-methyl-1H-pyrido[3,4-b]indole]	87	3	60					
